Test results: PMC5078040 (Oncotarget, 2016)

Tests used:
[1] = biological target: T1, RIPK2 (Homo sapiens, UniProt O43353); test: KinomeScan; type: binding; settings: 1uM
T1 construct: purchased DiscoveRx KINOMEscan

[2] = biological target: T2, MLK1 (Homo sapiens, UniProt P80192); test: KinomeScan; type: binding; settings: 1uM
T2 construct: purchased DiscoveRx KINOMEscan

[3] = biological target: T3, MAST1 (Homo sapiens, UniProt Q9Y2H9); test: KinomeScan; type: binding; settings: 1uM
T3 construct: purchased DiscoveRx KINOMEscan

[4] = biological target: T4, ICK (Homo sapiens, UniProt Q9UPZ9); test: KinomeScan; type: binding; settings: 1uM
T4 construct: purchased DiscoveRx KINOMEscan

[5] = biological target: T5, ABL1(H396P)-nonphosphorylated (Homo sapiens, UniProt P00519, H396P); test: KinomeScan; type: binding; settings: 1uM
T5 construct: purchased DiscoveRx KINOMEscan

[6] = biological target: T6, TNIK (Homo sapiens, UniProt Q9UKE5); test: KinomeScan; type: binding; settings: 1uM
T6 construct: purchased DiscoveRx KINOMEscan

[7] = biological target: T7, ERBB4 (Homo sapiens, UniProt Q15303); test: KinomeScan; type: binding; settings: 1uM
T7 construct: purchased DiscoveRx KINOMEscan

[8] = biological target: T8, RSK1(Kin.Dom.2-C-terminal) (Homo sapiens, UniProt Q15418); test: KinomeScan; type: binding; settings: 1uM
T8 construct: RSK1(Kin.Dom.2-C-terminal); purchased DiscoveRx KINOMEscan

[9] = biological target: T9, PIK3C2G (Homo sapiens, UniProt O75747); test: KinomeScan; type: binding; settings: 1uM
T9 construct: purchased DiscoveRx KINOMEscan

[10] = biological target: T10, LRRK2 (Homo sapiens, UniProt Q5S007); test: KinomeScan; type: binding; settings: 1uM
T10 construct: purchased DiscoveRx KINOMEscan

[11] = biological target: T11, FES (Homo sapiens, UniProt P07332); test: KinomeScan; type: binding; settings: 1uM
T11 construct: purchased DiscoveRx KINOMEscan

[12] = test system: HEL; test: Anti-proliferative assay; type: cell-based; settings: Homo sapiens, AML-M6, 72 hours, CellTiter-Glo
Protocol: (§1) Cells were grown in 96-well culture plates (3000-4000/well). […] Cell proliferation was determined after treatment with compounds for 72 hours. Cell viability was measured using the CellTiter–Glo Assay Kit (Promega, USA), according to the manufacturer's instructions, and luminescence was measured in a multi-label reader (Envision, PerkinElmer, USA). Data were normalized to control groups (DMSO) and represented by the mean of three independent measurements with standard error <20%. GI50 values were calculated using Prism 5.0 (GraphPad Software, San Diego, CA).

[13] = test system: Hs 505T; test: Anti-proliferative assay; type: cell-based; settings: Homo sapiens, CLL, 72 hours, CellTiter-Glo
Protocol: as §1

[14] = test system: HL-60; test: Anti-proliferative assay; type: cell-based; settings: Homo sapiens; HL-60, AML-M2; 72 hours, CellTiter-Glo
Protocol: as §1

[15] = test system: PF382; test: Anti-proliferative assay; type: cell-based; settings: Homo sapiens, PF-382; PF382, ALL; 72 hours, CellTiter-Glo
Protocol: as §1

[16] = test system: NALM-6; test: Anti-proliferative assay; type: cell-based; settings: Homo sapiens, 72 hours, CellTiter-Glo
Protocol: as §1

[17] = test system: JVM-2; test: Anti-proliferative assay; type: cell-based; settings: Homo sapiens; JVM-2, Mantle cell lymphoma; 72 hours, CellTiter-Glo
Protocol: as §1

[18] = test system: OCI-AML-2; test: Anti-proliferative assay; type: cell-based; settings: Homo sapiens, OCI-AML2; OCI-AML-2, AML-M4; 72 hours, CellTiter-Glo
Protocol: as §1

[19] = test system: MOLM-13; test: Anti-proliferative assay; type: cell-based; settings: Homo sapiens; MOLM-13, AML-M5; 72 hours, CellTiter-Glo
Protocol: as §1

[20] = test system: HT; test: Anti-proliferative assay; type: cell-based; settings: Homo sapiens, B-cell lymphoma, 72 hours, CellTiter-Glo
Protocol: as §1

[21] = test system: AMO-1; test: Anti-proliferative assay; type: cell-based; settings: Homo sapiens, AMO1; AMO-1, MM; 72 hours, CellTiter-Glo
Protocol: as §1

[22] = test system: SKM-1; test: Anti-proliferative assay; type: cell-based; settings: Homo sapiens; SKM-1, AML-M5; 72 hours, CellTiter-Glo
Protocol: as §1

[23] = test system: U937; test: Anti-proliferative assay; type: cell-based; settings: Homo sapiens, U-937; U937, AML; 72 hours, CellTiter-Glo
Protocol: as §1

[24] = test system: MV4-11; test: Anti-proliferative assay; type: cell-based; settings: Homo sapiens; MV4-11, AML; 72 hours, CellTiter-Glo
Protocol: as §1

[25] = test system: Namalwa; test: Anti-proliferative assay; type: cell-based; settings: Homo sapiens, Burrkit lymphoma, 72 hours, CellTiter-Glo
Protocol: as §1

[26] = test system: MEC-2; test: Anti-proliferative assay; type: cell-based; settings: Homo sapiens, MEC2; MEC-2, CLL; 72 hours, CellTiter-Glo
Protocol: as §1

[27] = test system: RPMI8226; test: Anti-proliferative assay; type: cell-based; settings: Homo sapiens, RPMI-8226; RPMI8226, MM; 72 hours, CellTiter-Glo
Protocol: as §1

[28] = test system: MOLM-14; test: Anti-proliferative assay; type: cell-based; settings: Homo sapiens; MOLM-14, AML-M5; 72 hours, CellTiter-Glo
Protocol: as §1

[29] = test system: MEC-1; test: Anti-proliferative assay; type: cell-based; settings: Homo sapiens, MEC1; MEC-1, CLL; 72 hours, CellTiter-Glo
Protocol: as §1

[30] = test system: NOMO-1; test: Anti-proliferative assay; type: cell-based; settings: Homo sapiens; NOMO-1, AML-M5; 72 hours, CellTiter-Glo
Protocol: as §1

[31] = test system: Ramos(new); test: Anti-proliferative assay; type: cell-based; settings: Homo sapiens, Burrkit lymphoma, 72 hours, CellTiter-Glo
Protocol: as §1

[32] = test system: OCI-AML-3; test: Anti-proliferative assay; type: cell-based; settings: Homo sapiens; OCI-AML-3, AML-M4; 72 hours, CellTiter-Glo
Protocol: as §1

[33] = biological target: T12, PIP5K2B (Homo sapiens, UniProt P78356); test: KinomeScan; type: binding; settings: 1uM
T12 construct: purchased DiscoveRx KINOMEscan

[34] = biological target: T13, FGFR3 (Homo sapiens, UniProt P22607); test: KinomeScan; type: binding; settings: 1uM
T13 construct: purchased DiscoveRx KINOMEscan

[35] = biological target: T14, HIPK1 (Homo sapiens, UniProt Q86Z02); test: KinomeScan; type: binding; settings: 1uM
T14 construct: purchased DiscoveRx KINOMEscan

[36] = biological target: T15, CSNK1A1L (Homo sapiens, UniProt Q8N752); test: KinomeScan; type: binding; settings: 1uM
T15 construct: purchased DiscoveRx KINOMEscan
T15 sequence (Q8N752 whole entry): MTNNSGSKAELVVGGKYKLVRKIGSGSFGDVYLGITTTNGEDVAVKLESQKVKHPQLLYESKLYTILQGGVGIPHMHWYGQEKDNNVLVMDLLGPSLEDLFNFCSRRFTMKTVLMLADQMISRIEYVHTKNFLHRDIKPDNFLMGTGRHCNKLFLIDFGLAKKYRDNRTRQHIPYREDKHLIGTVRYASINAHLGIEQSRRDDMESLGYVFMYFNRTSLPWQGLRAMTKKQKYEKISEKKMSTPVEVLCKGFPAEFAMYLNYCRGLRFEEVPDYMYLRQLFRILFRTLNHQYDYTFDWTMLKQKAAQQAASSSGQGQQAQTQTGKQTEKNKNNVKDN

T7 sequence (Q15303 26-1308): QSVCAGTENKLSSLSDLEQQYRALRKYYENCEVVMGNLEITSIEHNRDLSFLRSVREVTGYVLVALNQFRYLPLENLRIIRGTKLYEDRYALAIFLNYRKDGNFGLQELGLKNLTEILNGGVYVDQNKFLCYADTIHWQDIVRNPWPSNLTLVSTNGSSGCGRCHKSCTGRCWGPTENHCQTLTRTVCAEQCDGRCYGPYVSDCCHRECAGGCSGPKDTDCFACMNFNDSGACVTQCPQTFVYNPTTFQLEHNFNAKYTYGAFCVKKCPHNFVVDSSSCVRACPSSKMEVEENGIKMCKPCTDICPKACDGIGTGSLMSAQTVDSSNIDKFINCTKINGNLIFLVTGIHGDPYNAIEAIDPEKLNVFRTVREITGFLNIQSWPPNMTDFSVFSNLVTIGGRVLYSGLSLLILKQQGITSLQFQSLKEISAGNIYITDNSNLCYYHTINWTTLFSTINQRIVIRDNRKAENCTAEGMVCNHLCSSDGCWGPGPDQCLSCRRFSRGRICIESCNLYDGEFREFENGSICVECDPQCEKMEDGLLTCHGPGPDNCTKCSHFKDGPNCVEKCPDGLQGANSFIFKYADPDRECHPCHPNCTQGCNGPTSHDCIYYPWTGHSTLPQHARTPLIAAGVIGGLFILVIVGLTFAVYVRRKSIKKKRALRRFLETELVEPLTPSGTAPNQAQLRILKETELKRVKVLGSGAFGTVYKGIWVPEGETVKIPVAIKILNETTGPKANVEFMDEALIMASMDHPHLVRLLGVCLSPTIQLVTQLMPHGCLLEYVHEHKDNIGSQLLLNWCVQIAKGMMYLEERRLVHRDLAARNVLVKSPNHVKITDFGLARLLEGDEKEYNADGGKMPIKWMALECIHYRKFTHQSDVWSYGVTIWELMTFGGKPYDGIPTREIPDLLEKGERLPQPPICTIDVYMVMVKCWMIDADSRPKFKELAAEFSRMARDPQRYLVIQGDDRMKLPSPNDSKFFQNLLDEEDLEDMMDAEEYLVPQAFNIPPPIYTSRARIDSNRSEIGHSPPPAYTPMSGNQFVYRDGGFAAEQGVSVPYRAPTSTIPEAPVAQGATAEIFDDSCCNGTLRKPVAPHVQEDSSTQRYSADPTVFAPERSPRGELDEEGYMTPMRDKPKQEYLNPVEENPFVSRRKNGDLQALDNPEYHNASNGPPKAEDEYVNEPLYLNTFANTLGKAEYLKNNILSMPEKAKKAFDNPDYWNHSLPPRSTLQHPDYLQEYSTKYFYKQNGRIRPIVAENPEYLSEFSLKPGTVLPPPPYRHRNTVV
T8 sequence (Q15418 392-735 limits assumed): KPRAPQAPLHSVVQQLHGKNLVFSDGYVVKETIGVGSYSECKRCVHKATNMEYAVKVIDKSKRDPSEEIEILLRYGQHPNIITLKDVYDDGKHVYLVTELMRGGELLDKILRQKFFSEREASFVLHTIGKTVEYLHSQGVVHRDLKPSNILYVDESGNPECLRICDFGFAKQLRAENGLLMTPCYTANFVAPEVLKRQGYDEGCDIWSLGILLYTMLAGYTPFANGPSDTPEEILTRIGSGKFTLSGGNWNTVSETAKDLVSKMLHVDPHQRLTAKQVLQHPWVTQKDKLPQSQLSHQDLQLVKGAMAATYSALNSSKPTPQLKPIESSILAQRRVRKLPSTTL
T14 sequence (Q86Z02 whole entry): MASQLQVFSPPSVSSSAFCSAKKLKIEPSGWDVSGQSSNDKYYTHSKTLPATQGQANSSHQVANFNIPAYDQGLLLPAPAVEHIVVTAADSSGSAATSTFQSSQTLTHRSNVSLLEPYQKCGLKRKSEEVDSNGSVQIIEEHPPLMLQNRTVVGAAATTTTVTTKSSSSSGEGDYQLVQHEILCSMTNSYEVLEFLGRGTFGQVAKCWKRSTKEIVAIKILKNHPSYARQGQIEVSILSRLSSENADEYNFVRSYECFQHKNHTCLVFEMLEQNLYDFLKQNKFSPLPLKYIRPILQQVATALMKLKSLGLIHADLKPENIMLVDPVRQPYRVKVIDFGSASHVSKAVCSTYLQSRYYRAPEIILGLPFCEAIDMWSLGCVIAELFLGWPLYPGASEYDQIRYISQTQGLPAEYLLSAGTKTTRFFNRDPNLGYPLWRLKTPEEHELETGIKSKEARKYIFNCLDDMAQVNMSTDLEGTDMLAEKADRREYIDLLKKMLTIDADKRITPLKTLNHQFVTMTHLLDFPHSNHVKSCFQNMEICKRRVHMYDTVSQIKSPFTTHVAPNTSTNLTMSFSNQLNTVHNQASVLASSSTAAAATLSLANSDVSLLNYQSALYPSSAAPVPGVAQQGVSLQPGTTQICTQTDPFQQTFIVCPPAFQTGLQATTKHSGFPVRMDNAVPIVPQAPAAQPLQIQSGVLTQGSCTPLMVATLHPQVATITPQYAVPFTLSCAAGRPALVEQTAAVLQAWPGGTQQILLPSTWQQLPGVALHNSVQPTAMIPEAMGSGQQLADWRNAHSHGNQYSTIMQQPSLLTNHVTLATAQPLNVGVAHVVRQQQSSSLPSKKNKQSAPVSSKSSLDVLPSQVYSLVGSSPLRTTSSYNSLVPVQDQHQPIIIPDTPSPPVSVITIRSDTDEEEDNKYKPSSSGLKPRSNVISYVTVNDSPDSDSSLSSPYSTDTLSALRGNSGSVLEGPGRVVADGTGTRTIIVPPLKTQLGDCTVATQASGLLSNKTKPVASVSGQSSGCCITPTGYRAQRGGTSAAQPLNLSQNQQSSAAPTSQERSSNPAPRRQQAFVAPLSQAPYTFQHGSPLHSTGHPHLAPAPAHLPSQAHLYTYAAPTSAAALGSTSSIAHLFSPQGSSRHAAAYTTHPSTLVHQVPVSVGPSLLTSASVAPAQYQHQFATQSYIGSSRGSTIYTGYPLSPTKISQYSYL
T4 sequence (Q9UPZ9 whole entry): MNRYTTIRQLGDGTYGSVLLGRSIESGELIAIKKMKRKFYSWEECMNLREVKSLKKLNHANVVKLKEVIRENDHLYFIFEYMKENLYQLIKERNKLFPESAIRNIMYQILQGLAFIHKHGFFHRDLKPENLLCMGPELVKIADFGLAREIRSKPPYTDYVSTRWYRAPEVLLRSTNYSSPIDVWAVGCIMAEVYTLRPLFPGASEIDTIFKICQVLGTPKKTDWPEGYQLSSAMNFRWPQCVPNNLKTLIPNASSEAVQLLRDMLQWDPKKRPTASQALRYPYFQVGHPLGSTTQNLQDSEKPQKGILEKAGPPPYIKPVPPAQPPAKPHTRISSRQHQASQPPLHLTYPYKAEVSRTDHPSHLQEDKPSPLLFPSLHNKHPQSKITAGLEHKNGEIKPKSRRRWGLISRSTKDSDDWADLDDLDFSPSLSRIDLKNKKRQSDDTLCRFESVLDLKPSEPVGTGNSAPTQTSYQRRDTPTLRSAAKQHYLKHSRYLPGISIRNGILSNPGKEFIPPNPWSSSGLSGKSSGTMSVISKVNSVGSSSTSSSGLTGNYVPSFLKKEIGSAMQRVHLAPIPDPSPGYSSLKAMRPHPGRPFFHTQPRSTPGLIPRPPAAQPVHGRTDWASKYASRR
T12 sequence (P78356 whole entry): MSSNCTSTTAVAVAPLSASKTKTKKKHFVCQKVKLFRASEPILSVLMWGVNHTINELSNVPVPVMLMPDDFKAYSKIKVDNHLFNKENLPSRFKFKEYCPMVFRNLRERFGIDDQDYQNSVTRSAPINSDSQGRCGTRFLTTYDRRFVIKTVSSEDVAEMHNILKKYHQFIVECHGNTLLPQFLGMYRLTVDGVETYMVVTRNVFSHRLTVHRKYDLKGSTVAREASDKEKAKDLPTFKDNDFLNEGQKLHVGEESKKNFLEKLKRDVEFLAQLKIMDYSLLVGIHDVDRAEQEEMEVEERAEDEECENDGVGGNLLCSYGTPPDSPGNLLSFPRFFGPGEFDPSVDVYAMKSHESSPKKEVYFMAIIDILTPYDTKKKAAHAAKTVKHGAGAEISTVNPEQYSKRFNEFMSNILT
T13 sequence (P22607 23-806): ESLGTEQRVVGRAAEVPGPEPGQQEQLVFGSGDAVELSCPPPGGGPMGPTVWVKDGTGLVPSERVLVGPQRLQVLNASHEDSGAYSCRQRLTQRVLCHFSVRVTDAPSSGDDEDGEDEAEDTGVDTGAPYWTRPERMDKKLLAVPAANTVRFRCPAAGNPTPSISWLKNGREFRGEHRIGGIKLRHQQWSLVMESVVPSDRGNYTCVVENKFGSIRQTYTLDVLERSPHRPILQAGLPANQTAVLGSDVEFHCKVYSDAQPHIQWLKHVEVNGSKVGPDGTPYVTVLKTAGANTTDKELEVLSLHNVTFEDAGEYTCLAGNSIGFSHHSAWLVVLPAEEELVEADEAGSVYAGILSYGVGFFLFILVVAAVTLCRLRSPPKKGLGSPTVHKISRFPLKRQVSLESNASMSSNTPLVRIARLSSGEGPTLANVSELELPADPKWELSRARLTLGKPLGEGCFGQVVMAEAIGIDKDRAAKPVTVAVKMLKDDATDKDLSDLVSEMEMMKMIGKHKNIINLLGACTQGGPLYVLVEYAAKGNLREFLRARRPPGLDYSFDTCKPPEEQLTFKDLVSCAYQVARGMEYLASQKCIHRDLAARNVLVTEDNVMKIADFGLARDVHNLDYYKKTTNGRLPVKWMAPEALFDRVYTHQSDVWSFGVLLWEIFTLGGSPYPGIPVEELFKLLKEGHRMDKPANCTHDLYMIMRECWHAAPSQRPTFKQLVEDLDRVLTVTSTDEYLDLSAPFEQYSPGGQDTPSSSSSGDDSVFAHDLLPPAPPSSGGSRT

In the case of `Cc1nc(NC(=O)[C@@H](N)C(C)C)sc1-c1cnc(Cl)c(NS(=O)(=O)c2ccccc2)c1` [PI3KD-IN-015], the “KinomeScan RIPK2” value [1] is reported as 98, the “KinomeScan MLK1” value [2] is reported as 100 and the “KinomeScan MAST1” value [3] is reported as 100. The “KinomeScan ICK” value [4] was 95, the “KinomeScan ABL1(H396P)-nonphosphorylated” value [5] was 100 and the “KinomeScan TNIK” value [6] was 95. For the same compound, the “KinomeScan ERBB4” value [7] was 98, the “KinomeScan RSK1(Kin.Dom.2-C-terminal)” value [8] was 96 and the “KinomeScan PIK3C2G” value [9] was 65. For the same compound, the “KinomeScan LRRK2” value [10] was 100, the “KinomeScan FES” value [11] was 100 and the GI50 [12] was over 10 µM. For the same compound, the GI50 [13] was over 10 µM, the GI50 [14] was 2.3 µM and the GI50 [15] was 3.2 µM. The GI50 [16] was 1.8 µM, the GI50 [17] was over 10 µM and the GI50 [18] was 1.8 µM. For the same compound, the GI50 [19] was 0.94 µM, the GI50 [20] was 0.86 µM and the GI50 [21] was 1.1 µM. It also gave a GI50 [22] of 2.6 µM, a GI50 [23] of 5.1 µM and a GI50 [24] of 1.9 µM. It also gave a GI50 [25] of 1.4 µM, a GI50 [26] of over 10 µM and a GI50 [27] of 2.5 µM. For the same compound, the GI50 [28] was 2.2 µM, the GI50 [29] was over 10 µM and the GI50 [30] was 1.4 µM. For the same compound, the GI50 [31] was 2 µM, the GI50 [32] was 3.1 µM and the “KinomeScan PIP5K2B” value [33] was 100. The “KinomeScan FGFR3” value [34] was 100, the “KinomeScan HIPK1” value [35] was 96 and the “KinomeScan CSNK1A1L” value [36] was 100.
